In test [1] the test system is A431 cells [human epidermoid carcinoma, overexpressing HER1 (EGFR, ErbB1)]. In words: In vitro tumor cell proliferation assay (Cell Titer-Glo luminescent cell viability), A431 cells. It counts as cell-based. The note with it: A-431, 72 h, 72 hours of drug exposure, Cell Titer-Glo readout, read-out: IC50, anti-proliferative activity in A431 cells. An excerpt: (§1) The utility of the compounds of the present invention can be illustrated, for example, by their activity in vitro in the in vitro tumor cell proliferation assay described below. The link between activity in tumor cell proliferation assays in vitro and anti-tumor activity in the clinical setting has been very well established in the art.
(§2) The following assay is one of the methods by which compound activity relating to treatment of the disorders identified herein can be determined.
(§3) The tumor cell proliferation assay used to test the compounds of the present invention involves a readout called Cell Titer-Glow® Luminescent Cell Viability Assay developed by Promega® (Cunningham, B A “A Growing Issue: Cell Proliferation Assays, Modern kits ease quantification of cell growth” The Scientist 2001, 15(13), 26, and Crouch, S P et al., “The use of ATP bioluminescence as a measure of cell proliferation and cytotoxicity” Journal of Immunological Methods 1993, 160, 81-88), that measures inhibition of cell proliferation. Generation of a luminescent signal corresponds to the amount of ATP present, which is directly proportional to the number of metabolically active (proliferating) cells.
(§4) A431 cells [human epidermoid carcinoma, ATCC # […], overexpressing HER1 (EGFR, ErbB1)] and BT474 [human breast carcinoma, ATCC # CRL-1555, overexpressing HER2 (ErbB2)] were plated at a density of 2.5×10^3 cells/well in 96 well black-clear bottom tissue culture plates in RPMI media with 10% Fetal Bovine Serum and incubated at 37° C. Twenty-four hours later, test compounds are added at a final concentration range from as high 100 μm to as low 64 pM depend on the activities of the tested compounds in serial dilutions at a final DMSO concentration of 0.1%. Cells were incubated for 72 hours at 37° C. in complete growth media after addition of the test compound. After 72 hours of drug exposure, the plates were equilibrated to room temperature for approximately 30 min. Then, using a Promega Cell Titer Glo Luminescent® assay kit, lysis buffer containing 100 microliters of the enzyme luciferase and its substrate, luciferin mixture, was added to each well. The plates were mixed for 2 min on orbital shaker to ensure cell lysis and incubated for 10 min at room temperature to stabilize luminescence signal. The samples were read on VICTOR 2 using Luminescence protocol, and analyzed with Analyze5 software to generate IC50 values.
A general note: ATP-based viability assays read luminescence as a measure of living cells.

The test system of test [2] is BT474 [human breast carcinoma, overexpressing HER2 (ErbB2)]. The test can be described thus: In vitro tumor cell proliferation assay (Cell Titer-Glo luminescent cell viability), BT474 cells. It is filed as cell-based. The note with it: BT-474, 72 h, 72 hours of drug exposure, Cell Titer-Glo readout, read-out: IC50, anti-proliferative activity in BT474 cells.
Excerpt: as §1, §2, §3, §4

Where a name gives a salt, the structure may show the parent alone. A value given as a limit tells only on which side of the number the result lay.

The IC50 is the point on the concentration scale where inhibition reaches its midpoint. Regarding `O=S1(=O)CCN(CCc2ccc3c(c2)sc2ncnc(Nc4ccc(OCc5cccc(F)c5)c(Cl)c4)c23)CC1` [Example 18, N-{3-chloro-4-[(3-fluorobenzyl)oxy]phenyl}-7-[2-(1,1-dioxidothiomorpholin-4-yl)ethyl][1]benzothieno[2,3-d] pyrimidin-4-amine], the IC50 in test [1] is at most 50 µM; in test [2], at most 0.5 µM.

Turning to `[O-][S+]1CCN(CCc2ccc3c(c2)sc2ncnc(Nc4ccc(OCc5cccc(F)c5)c(Cl)c4)c23)CC1` [Example 19, N-{3-chloro-4-[(3-fluorobenzyl)oxy]phenyl}-7-[2-(1-oxidothiomorpholin-4-yl)ethyl][1] benzothieno[2,3-d]pyrimidin-4-amine], the values for the IC50 in test [1] and in test [2] were at most 50 µM and at most 5 µM, respectively.

Consider `COC1CCN(CCc2ccc3c(c2)sc2ncnc(Nc4ccc(OCc5cccc(F)c5)c(Cl)c4)c23)C1` (stereo not shown) [Example 20, N-{3-chloro-4-[(3-fluorobenzyl)oxy]phenyl}-7-[2-(3-methoxypyrrolidin-1-yl)ethyl][1] benzothieno[2,3-d]pyrimidin-4-amine], for which the figures for the IC50 in test [1] and in test [2] were at most 5 µM and at most 0.5 µM, respectively.

Regarding `CN1CCN(CCc2ccc3c(c2)sc2ncnc(Nc4ccc(OCc5cccc(F)c5)c(Cl)c4)c23)CC1` [Example 21, N-{3-chloro-4-[(3-fluorobenzyl)oxy]phenyl}-7-[2-(4-methylpiperazin-1-yl)ethyl][1] benzothieno[2,3-d]pyrimidin-4-amine], the IC50 in test [1] was at most 5 µM; in test [2], at most 0.5 µM.

Take `OCCNCCc1ccc2c(c1)sc1ncnc(Nc3ccc(OCc4cccc(F)c4)c(Cl)c3)c12` [Example 22, 2-({2-[4-({3-chloro-4-[(3-fluorobenzyl)oxy]phenyl}amino) [1]benzothieno [2,3-d]pyrimidin-7-yl]ethyl}amino)ethanol]: the IC50 is at most 5 µM in test [1] and at most 0.5 µM in test [2].

`Fc1cccc(COc2ccc(Nc3ncnc4sc5cc(CCN6CCNCC6)ccc5c34)cc2Cl)c1` [Example 23, N-{3-chloro-4-[(3-fluorobenzyl)oxy]phenyl}-7-(2-piperazin-1-ylethyl)[1]benzothieno [2,3-d]pyrimidin-4-amine]: the values for the IC50 in test [1] and in test [2] were at most 5 µM and at most 0.5 µM, respectively.

Take `CN(C)[C@H]1CCN(CCc2ccc3c(c2)sc2ncnc(Nc4ccc(OCc5cccc(F)c5)c(Cl)c4)c23)C1` [Example 24, N-{3-chloro-4-[(3-fluorobenzyl)oxy]phenyl}-7-{2-[3-(dimethylamino)pyrrolidin-1-yl]ethyl}[1]benzothieno[2,3-d] pyrimidin-4-amine]: the IC50 in test [1] and in test [2] was at most 5 µM each time.

Take `OC[C@@H](O)c1ccc2c(c1)sc1ncnc(Nc3ccc(OCc4cccc(F)c4)c(Cl)c3)c12` [Example 26, (1S)-1-[4-({3-chloro-4-[(3-fluorobenzyl)oxy]phenyl}amino)[1]benzothieno[2,3-d]pyrimidin-7-yl]ethane-1,2-diol]: the IC50 was at most 5 µM in test [1] and at most 0.5 µM in test [2].

On to `OC[C@H](O)c1ccc2c(c1)sc1ncnc(Nc3ccc(OCc4cccc(F)c4)c(Cl)c3)c12` [Example 27, (1R)-1-[4-({3-chloro-4-[(3-fluorobenzyl)oxy]phenyl}amino) [1]benzothieno[2,3-d]pyrimidin-7-yl]ethane-1,2-diol], for which the values for the IC50 in test [1] and in test [2] were at most 5 µM and at most 0.5 µM, respectively.

`O=C(Cc1ccc2c(c1)sc1ncnc(Nc3ccc(OCc4cccc(F)c4)c(Cl)c3)c12)N1CCOCC1` [Example 28, 2-{4-[3-Chloro-4-(3-fluoro-benzyloxy)-phenylamino]-benzo[4,5]thieno[2,3-]pyrimidin-7-yl}-1-morpholin-4-yl-ethanone]: the IC50 in test [1] was at most 5 µM; in test [2], at most 0.5 µM.

Take `O=C(Cc1ccc2c(c1)sc1ncnc(Nc3ccc(OCc4cccc(F)c4)c(Cl)c3)c12)NCCOCCO` [Example 29, 2-[4-({3-chloro-4-[(3-fluorobenzyl)oxy]phenyl}amino)[1]benzothieno[2,3-d]pyrimidin-7-yl]-N-[2-(2-hydroxyethoxy)ethyl] acetamide]: the IC50 was at most 5 µM in test [1] and at most 0.5 µM in test [2].

As to `O=C(Cc1ccc2c(c1)sc1ncnc(Nc3ccc(OCc4cccc(F)c4)c(Cl)c3)c12)NCCN1CCOCC1` [Example 30, 2-[4-({3-chloro-4-[(3-fluorobenzyl)oxy]phenyl}amino)[1]benzothieno[2,3-d]pyrimidin-7-yl]-N-(2-morpholin-4-ylethyl)acetamide], the IC50 in test [1] was at most 5 µM; in test [2] it was at most 0.5 µM.

Turning to `O=C(Cc1ccc2c(c1)sc1ncnc(Nc3ccc(OCc4cccc(F)c4)c(Cl)c3)c12)N1CCNCC1` [Example 31, N-{3-chloro-4-[(3-fluorobenzyl)oxy]phenyl}-7-(2-oxo-2-piperazin-1-ylethyl)[1] benzothieno[2,3-d]pyrimidin-4-amine hydrochloride], the IC50 in test [1] was at most 5 µM; in test [2], at most 0.5 µM.

Take `CN1CCN(C(=O)Cc2ccc3c(c2)sc2ncnc(Nc4ccc(OCc5cccc(F)c5)c(Cl)c4)c23)CC1` [Example 32, N-{3-chloro-4-[(3-fluorobenzyl)oxy]phenyl}-7-[2-(4-methylpiperazin-1-yl)-2-oxoethyl][1]benzothieno[2,3-d] pyrimidin-4-amine]: the IC50 is at most 5 µM in test [1] and at most 0.5 µM in test [2].

For `O=C(Cc1ccc2c(c1)sc1ncnc(Nc3ccc(OCc4cccc(F)c4)c(Cl)c3)c12)NCC1CCCNC1` (stereo not shown) [Example 33, 2-[4-({3-chloro-4-[(3-fluorobenzyl)oxy]phenyl}amino) [1]benzothieno[2,3-d]pyrimidin-7-yl]-N-(piperidin-3-ylmethyl) acetamide hydrochloride], the values for the IC50 in test [1] and in test [2] were at most 50 µM and at most 0.5 µM, respectively.

As to `Oc1ccc2c(c1)sc1ncnc(Nc3ccc(OCc4cccc(F)c4)c(Cl)c3)c12` [Example 34, 4-({3-chloro-4-[(3-fluorobenzyl)oxy]phenyl}amino)[1]benzothieno[2,3-d]pyrimidin-7-ol], the concentration for half-maximal inhibition (IC50) in test [1] was at most 50 µM; in test [2], at most 0.5 µM.

Turning to `OC[C@H](O)COc1ccc2c(c1)sc1ncnc(Nc3ccc(OCc4cccc(F)c4)c(Cl)c3)c12` [Example 36, (2S)-3-{[4-({3-chloro-4-[(3-fluorobenzyl)oxy]phenyl}amino)[1]benzothieno[2,3-d]pyrimidin-7-yl]oxy}propane-1,2-diol], the IC50 in test [1] is at most 5 µM; in test [2], at most 0.5 µM.

On to `Fc1cccc(COc2ccc(Nc3ncnc4sc5cc(OCCN6CCOCC6)ccc5c34)cc2Cl)c1` [Example 38, N-{3-chloro-4-[(3-fluorobenzyl)oxy]phenyl}-7-(2-morpholin-4-ylethoxy) [1]benzothieno[2,3-d]pyrimidin-4-amine], for which the IC50 was at most 5 µM in test [1] and at most 0.5 µM in test [2].

Turning to `Fc1cccc(COc2ccc(Nc3ncnc4sc5cc(OCCCN6CCOCC6)ccc5c34)cc2Cl)c1` [Example 39, N-{3-chloro-4-[(3-fluorobenzyl)oxy]phenyl}-7-(3-morpholin-4-ylpropoxy)[1] benzothieno[2,3-d]pyrimidin-4-amine], the IC50 was at most 5 µM in test [1] and at most 0.5 µM in test [2].

As for `Fc1cccc(COc2ccc(Nc3ncnc4sc5cc(OCCn6cccc6)ccc5c34)cc2Cl)c1` [Example 40, N-{3-chloro-4-[(3-fluorobenzyl)oxy]phenyl}-7-[2-(1H-pyrrol-1-yl)ethoxy][1] benzothieno[2,3-d]pyrimidin-4-amine], the IC50 in test [1] was at most 50 µM; in test [2] it was at most 5 µM.

As for `Fc1cccc(COc2ccc(Nc3ncnc4sc5cc(OCCN6CCCC6)ccc5c34)cc2Cl)c1` [Example 41, N-{3-chloro-4-[(3-fluorobenzyl)oxy]phenyl}-7-(2-pyrrolidin-1-ylethoxy)[1] benzothieno[2,3-d]pyrimidin-4-amine], the values for the IC50 in test [1] and in test [2] were at most 5 µM and at most 0.5 µM, respectively.

Take `CCOC(=O)C(Oc1ccc2c(c1)sc1ncnc(Nc3ccc(OCc4cccc(F)c4)c(Cl)c3)c12)C(=O)OCC` [Example 42, diethyl {[4-({3-chloro-4-[(3-fluorobenzyl)oxy]phenyl}amino)[1]benzothieno[2,3-d]pyrimidin-7-yl]oxy}malonate trifluoroacetate]: the IC50 in test [1] is at most 50 µM; in test [2], at most 5 µM.

As for `OCC(CO)Oc1ccc2c(c1)sc1ncnc(Nc3ccc(OCc4cccc(F)c4)c(Cl)c3)c12` [Example 43, 2-{[4-({3-chloro-4-[(3-fluorobenzyl)oxy]phenyl}amino) [1]benzothieno[2,3-d]pyrimidin-7-yl]oxy}propane-1,3-diol trifluoroacetate (salt)], the IC50 is at most 50 µM in test [1] and at most 0.5 µM in test [2].

The values above are taken from patent publication US7750017B2, “Heterocycles” (Bayer Schering Pharma Aktiengesellschaft, priority 2004, dated 2010).
